Test results published in PubChem BioAssay AID330 (DTP/NCI, 2004).
Several values for one entry are separate records, joined by “and”; a condition that tells them apart may be missing. Equal values may be shown once. Toxic doses and inconclusive results are not listed.

System: P388 leukemia ip, CD2F1 mice, survival T/C
Assay: NCI In Vivo Anticancer Drug Screen. Data for tumor model P388 Leukemia (intraperitoneal) in CD2F1 (CDF1) mice
Conditions: endpoint: median survival time, higher = longer survival
Outline: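 Mice carrying the transplanted tumor received test compound or vehicle. Survival was recorded in each group, and the value is the treated-group measurement divided by that of the vehicle-treated control group.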

[1] = dose: 50.0 mg/kg/injection, schedule: Q01DX009 (ip), vehicle: Klucel (hydroxypropylcellulose) (HPC)
[2] = dose: 100.0 mg/kg/injection, schedule: Q01DX009 (ip), vehicle: Klucel (hydroxypropylcellulose) (HPC)
[3] = dose: 200.0 mg/kg/injection, schedule: Q01DX009 (ip), vehicle: Klucel (hydroxypropylcellulose) (HPC)
[4] = dose: 50.0 mg/kg/injection, schedule: Q01DX009 (ip), vehicle: saline with Tween-80
[5] = dose: 60.0 mg/kg/injection, schedule: Q01DX005 (ip), vehicle: Klucel (hydroxypropylcellulose) (HPC)
[6] = dose: 120.0 mg/kg/injection, schedule: Q01DX005 (ip), vehicle: Klucel (hydroxypropylcellulose) (HPC)
[7] = dose: 3.75 mg/kg/injection, schedule: Q01DX005 (ip), vehicle: saline
[8] = dose: 7.5 mg/kg/injection, schedule: Q01DX005 (ip), vehicle: saline
[9] = dose: 15.0 mg/kg/injection, schedule: Q01DX005 (ip), vehicle: saline
[10] = dose: 30.0 mg/kg/injection, schedule: Q01DX005 (ip), vehicle: saline
[11] = dose: 60.0 mg/kg/injection, schedule: Q01DX005 (ip), vehicle: saline with Tween-80
[12] = dose: 120.0 mg/kg/injection, schedule: Q01DX005 (ip), vehicle: saline with Tween-80
[13] = dose: 240.0 mg/kg/injection, schedule: Q01DX005 (ip), vehicle: saline with Tween-80
[14] = dose: 100.0 mg/kg/injection, schedule: Q01DX009 (ip), vehicle: saline with Tween-80
[15] = dose: 200.0 mg/kg/injection, schedule: Q01DX009 (ip), vehicle: saline with Tween-80
[16] = dose: 100.0 mg/kg/injection, schedule: Q04DX002 (ip), vehicle: Klucel (hydroxypropylcellulose) (HPC)
[17] = dose: 200.0 mg/kg/injection, schedule: Q04DX002 (ip), vehicle: Klucel (hydroxypropylcellulose) (HPC)
[18] = dose: 100.0 mg/kg/injection, schedule: Q01DX005 (ip), vehicle: saline with Tween-80
[19] = dose: 50.0 mg/kg/injection, schedule: Q01DX005 (ip), vehicle: saline with Tween-80
[20] = dose: 200.0 mg/kg/injection, schedule: Q01DX005 (ip), vehicle: saline with Tween-80

## Cc1ccc(C(=O)CC2(O)C(=O)Nc3ccccc32)cc1 (configuration not stated)
[1]
  T/C: 96 % of control
[2]
  T/C: 92 % of control
[3]
  T/C: 87 % of control

## Cc1ccccc1SSc1ccccc1C
[4]
  T/C: 113 % of control

## COc1cc(NS(C)(=O)=O)ccc1Nc1c2ccccc2nc2c(C)cccc12
dose: 1.25 mg/kg/injection, schedule: Q01DX009 (ip), vehicle: saline with Tween-80
  T/C: 155 % of control
dose: 2.5 mg/kg/injection, schedule: Q01DX009 (ip), vehicle: saline with Tween-80
  T/C: 165 % of control
dose: 5.0 mg/kg/injection, schedule: Q01DX009 (ip), vehicle: saline with Tween-80
  T/C: 87 % of control
dose: 6.25 mg/kg/injection, schedule: Q01DX009 (ip), vehicle: Klucel (hydroxypropylcellulose) (HPC)
  T/C: 97 % of control

## O=C(NCCS(=O)(=O)O)C1CCCN1 (configuration not stated)
dose: 60.0 mg/kg/injection, schedule: Q01DX005 (ip), vehicle: saline
  T/C: 100 % of control
dose: 120.0 mg/kg/injection, schedule: Q01DX005 (ip), vehicle: saline
  T/C: 100 % of control
dose: 240.0 mg/kg/injection, schedule: Q01DX005 (ip), vehicle: saline
  T/C: 99 % of control

## COc1ccc2c(c1)SC1=NNC(=O)CN12
[5]
  T/C: 89 % of control
[6]
  T/C: 89 % of control
dose: 240.0 mg/kg/injection, schedule: Q01DX005 (ip), vehicle: Klucel (hydroxypropylcellulose) (HPC)
  T/C: 91 % of control

## C=C=CN1C(C)=CC(=C2C(=O)c3ccccc3C2=O)C=C1C
dose: 25.0 mg/kg/injection, schedule: Q01DX005 (ip), vehicle: Klucel (hydroxypropylcellulose) (HPC)
  T/C: 99 % of control and 97 % of control
dose: 50.0 mg/kg/injection, schedule: Q01DX005 (ip), vehicle: Klucel (hydroxypropylcellulose) (HPC)
  T/C: 104 % of control and 92 % of control and 96 % of control
[5]
  T/C: 87 % of control
dose: 100.0 mg/kg/injection, schedule: Q01DX005 (ip), vehicle: Klucel (hydroxypropylcellulose) (HPC)
  T/C: 117 % of control and 96 % of control and 97 % of control
[6]
  T/C: 97 % of control
dose: 200.0 mg/kg/injection, schedule: Q01DX005 (ip), vehicle: Klucel (hydroxypropylcellulose) (HPC)
  T/C: 106 % of control and 93 % of control

## O=c1cccc[nH]1
dose: 50.0 mg/kg/injection, schedule: Q01DX009 (ip), vehicle: saline
  T/C: 104 % of control and 112 % of control and 121 % of control
dose: 100.0 mg/kg/injection, schedule: Q01DX009 (ip), vehicle: saline
  T/C: 107 % of control and 109 % of control and 110 % of control
dose: 200.0 mg/kg/injection, schedule: Q01DX009 (ip), vehicle: saline
  T/C: 104 % of control and 105 % of control and 118 % of control
dose: 400.0 mg/kg/injection, schedule: Q01DX009 (ip), vehicle: saline
  T/C: 108 % of control and 96 % of control
dose: 600.0 mg/kg/injection, schedule: Q01DX009 (ip), vehicle: saline
  T/C: 121 % of control

## O=S(=O)(O)O.[NH2-].[NH2-].[Pt+2]
dose: 1.56 mg/kg/injection, schedule: Q04DX002 (ip), vehicle: saline with Tween-80
  T/C: 112 % of control
dose: 6.25 mg/kg/injection, schedule: Q04DX002 (ip), vehicle: saline with Tween-80
  T/C: 162 % of control
dose: 12.5 mg/kg/injection, schedule: Q04DX002 (ip), vehicle: saline with Tween-80
  T/C: 156 % of control

## Cc1cc[n+](Cc2cc3ccccc3nc2Cl)cc1C
[7]
  T/C: 110 % of control
[8]
  T/C: 93 % of control
[9]
  T/C: 104 % of control
[10]
  T/C: 107 % of control

## O=C(Oc1ccc2c(=O)cc(-c3ccccc3)oc2c1OC(=O)c1ccccc1)c1ccccc1
[11]
  T/C: 94 % of control
[12]
  T/C: 93 % of control
[13]
  T/C: 90 % of control

## COc1ccc(C2(C)C=C(C)C=C(C)C2=O)cc1 (configuration not stated)
[4]
  T/C: 100 % of control
[14]
  T/C: 106 % of control
[15]
  T/C: 100 % of control

## CCOC(=O)C1CCCCC12OCCO2 (configuration not stated)
dose: 50.0 mg/kg/injection, schedule: Q01DX005 (ip), vehicle: saline
  T/C: 95 % of control
dose: 100.0 mg/kg/injection, schedule: Q01DX005 (ip), vehicle: saline
  T/C: 96 % of control
dose: 200.0 mg/kg/injection, schedule: Q01DX005 (ip), vehicle: saline
  T/C: 95 % of control

## CN(C)CCN(C)CC(C)(C)C(=O)/C=C/c1ccc(Cl)c(Cl)c1
[7]
  T/C: 102 % of control and 107 % of control
[8]
  T/C: 98 % of control and 95 % of control
[9]
  T/C: 99 % of control and 100 % of control and 97 % of control
[10]
  T/C: 101 % of control and 102 % of control

## COC(=O)C1(N)CCCC1
dose: 100.0 mg/kg/injection, schedule: Q04DX003 (ip), vehicle: saline
  T/C: 90 % of control
dose: 200.0 mg/kg/injection, schedule: Q04DX003 (ip), vehicle: saline
  T/C: 113 % of control
dose: 400.0 mg/kg/injection, schedule: Q04DX003 (ip), vehicle: saline
  T/C: 109 % of control

## CSC(=S)n1nc(-c2ccccc2)c(N=Nc2ccccc2[N+](=O)[O-])c1-c1ccccc1
[16]
  T/C: 105 % of control
[17]
  T/C: 97 % of control

## Cc1ccc(-c2cs/c(=N\N=C3/CSC(=O)N3Cc3ccccc3)n2-c2ccccc2)cc1
[16]
  T/C: 98 % of control
[17]
  T/C: 89 % of control

## O=C(O)[C@@H]1CCC(c2ccccc2)=N1
dose: 50.0 mg/kg/injection, schedule: Q01DX005 (ip), vehicle: distilled water + alcohol
  T/C: 98 % of control
dose: 100.0 mg/kg/injection, schedule: Q01DX005 (ip), vehicle: distilled water + alcohol
  T/C: 98 % of control
dose: 200.0 mg/kg/injection, schedule: Q01DX005 (ip), vehicle: distilled water + alcohol
  T/C: 98 % of control

## CCc1c[nH]c(C=O)c1CC
[11]
  T/C: 100 % of control
[12]
  T/C: 100 % of control
[13]
  T/C: 99 % of control

## CC(O)C(c1ccccc1)S(C)(=O)=O (configuration not stated)
dose: 25.0 mg/kg/injection, schedule: Q01DX009 (ip), vehicle: saline with Tween-80
  T/C: 101 % of control
[4]
  T/C: 110 % of control
[14]
  T/C: 116 % of control
[15]
  T/C: 113 % of control

## C=C1OC(C)=C(C(=O)OC(C)(C)C)C1C (configuration not stated)
dose: 100.0 mg/kg/injection, schedule: Q01DX001 (ip), vehicle: saline with Tween-80
  T/C: 106 % of control
dose: 200.0 mg/kg/injection, schedule: Q01DX001 (ip), vehicle: saline with Tween-80
  T/C: 102 % of control
dose: 400.0 mg/kg/injection, schedule: Q01DX001 (ip), vehicle: saline with Tween-80
  T/C: 105 % of control

## N#CC(OC1OC(COC2OC(CO)C(O)C(O)C2O)C(O)C(O)C1O)c1ccccc1 (configuration not stated)
dose: 25.0 mg/kg/injection, schedule: Q01DX009 (ip), vehicle: water
  T/C: 102 % of control and 108 % of control
dose: 50.0 mg/kg/injection, schedule: Q01DX009 (ip), vehicle: water
  T/C: 101 % of control and 108 % of control
dose: 100.0 mg/kg/injection, schedule: Q01DX009 (ip), vehicle: water
  T/C: 102 % of control and 105 % of control and 94 % of control
dose: 200.0 mg/kg/injection, schedule: Q01DX009 (ip), vehicle: water
  T/C: 105 % of control and 109 % of control and 92 % of control
dose: 400.0 mg/kg/injection, schedule: Q01DX009 (ip), vehicle: water
  T/C: 105 % of control and 110 % of control and 96 % of control
dose: 800.0 mg/kg/injection, schedule: Q01DX009 (ip), vehicle: saline
  T/C: 98 % of control
dose: 800.0 mg/kg/injection, schedule: Q01DX009 (ip), vehicle: water
  T/C: 105 % of control and 123 % of control and 96 % of control
dose: 1600.0 mg/kg/injection, schedule: Q01DX009 (ip), vehicle: saline
  T/C: 100 % of control

## c1ccc(-c2nn[nH]n2)cc1
dose: 25.0 mg/kg/injection, schedule: Q01DX009 (ip), vehicle: Klucel (hydroxypropylcellulose) (HPC)
  T/C: 100 % of control
[1]
  T/C: 100 % of control
[2]
  T/C: 118 % of control
[3]
  T/C: 100 % of control

## S=C1N(c2ccc(Cl)cc2)C2=C(N=Nc3ccccc3Cl)C(=Nc3ccccc3S2)N1c1ccccn1
[18]
  T/C: 108 % of control

## CCOC(=O)c1csc(-c2ccc(COC(=O)c3ccccc3)o2)n1
[19]
  T/C: 100 % of control
[18]
  T/C: 96 % of control
[20]
  T/C: 89 % of control

## O=C1COCC(=O)OCCOCCSCCOCCO1
dose: 100.0 mg/kg/injection, schedule: Q04DX003 (ip), vehicle: Klucel (hydroxypropylcellulose) (HPC)
  T/C: 102 % of control
dose: 200.0 mg/kg/injection, schedule: Q04DX003 (ip), vehicle: Klucel (hydroxypropylcellulose) (HPC)
  T/C: 102 % of control
dose: 400.0 mg/kg/injection, schedule: Q04DX003 (ip), vehicle: Klucel (hydroxypropylcellulose) (HPC)
  T/C: 100 % of control

## NNC(=O)C(=O)N/N=C(/CC1(O)C(=O)Nc2ccccc21)c1ccc([N+](=O)[O-])cc1 (configuration not stated)
[19]
  T/C: 103 % of control
[18]
  T/C: 94 % of control
[20]
  T/C: 90 % of control
